According to patent publication US10766869B2, “Triazoles for the treatment of demyelinating dieases” (Vertex Pharmaceuticals Incorporated, priority 2015, dated 2020):
Where two headings read alike, the source gives them in different places.

System: primary rat mixed cortical cells
Test: In vitro myelination assay (MBP positive myelin strands, fold myelin pixels above background)
Assay type: cell-based
Settings: Rattus norvegicus; for fold induction at 1 µM: 1.0 μM compound; for fold induction at 10 µM: 10.0 μM compound
In short: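 Fourteen-day treatment of primary P1 rat mixed cortical cultures, re-dosed at days 6 and 10, at 1.0 μM and 10.0 μM. MBP immunofluorescence was imaged at 10× and myelin strands quantified by software, normalised to untreated wells as fold above background.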

[1] = relative to baseline of no added compound, read-out: Fold myelin pixels above background
[2] = relative to baseline of no added compound, read-out: Fold myelin pixels above background, 1.0 μM
[3] = relative to baseline of no added compound, read-out: Fold myelin pixels above background, 10.0 μM
[4] = read-out: Fold myelin pixels above background relative to baseline of no added compound

| Compound | fold induction at 1 µM [1] | fold induction at 10 µM [1] | fold induction at 1 µM [2] | fold induction at 10 µM [3] | fold induction at 1 µM [4] | fold induction at 10 µM [4] |
| --- | --- | --- | --- | --- | --- | --- |
| Cc1cc(Nc2ncn(-c3ccccc3)n2)cc(N2CCN(c3ccccc3F)CC2)c1 [Compound 455, N-[3-[4-(2-fluorophenyl)piperazin-1-yl]-5-methyl-phenyl]-1-phenyl-1,2,4-triazol-3-amine] | ≤ 1 | 10 to 100 | – | – | – | – |
| FC(F)(F)c1cc(Nc2ncn(-c3cnccn3)n2)cc(N2CCC(C3COC3)CC2)c1 [Compound 507, N-[3-[4-(oxetan-3-yl)-1-piperidyl]-5-(trifluoromethyl)phenyl]-1-pyrazin-2-yl-1,2,4-triazol-3-amine] | 10 to 100 | 100 to 1000 | – | – | – | – |
| FC(F)(F)c1cc(Nc2ncn(-c3cccnc3)n2)nc(N2CCN(C3COC3)CC2)c1 [Compound 684, 6-[4-(oxetan-3-yl)piperazin-1-yl]-N-[1-(3-pyridyl)-1,2,4-triazol-3-yl]-4-(trifluoromethyl)pyridin-2-amine] | 10 to 100 | 10 to 100 | – | – | – | – |
| Cc1cc(Nc2ncn(-c3ccccc3)n2)cc(N2CCN(C3CCOC3C)CC2)c1 (stereo not drawn) [Compound 127, N-[3-methyl-5-[4-(2-methyltetrahydrofuran-3-yl)piperazin-1-yl]phenyl]-1-phenyl-1,2,4-triazol-3-amine] | – | – | 1000 to 10000 | 1 to 10 | – | – |
| COC(=O)N1CCC(c2cc(C)cc(Nc3ncn(-c4ccccc4)n3)c2)CC1 [Compound 12, methyl 4-[3-methyl-5-[(1-phenyl-1,2,4-triazol-3-yl)amino]phenyl]piperidine-1-carboxylate] | – | – | 100 to 1000 | 1 to 10 | – | – |
| [2H]C1(N2CCN(c3cc(C)cc(Nc4ncn(-c5ccccc5)n4)c3)CC2)COC1 [Compound 898, N-[3-[4-(3-deuteriooxetan-3-yl)piperazin-1-yl]-5-methyl-phenyl]-1-phenyl-1,2,4-triazol-3-amine] | – | – | – | – | 10 to 100 | ≤ 1 |
| Fc1cc(F)cc(-n2cnc(Nc3cc(N4CC(N5CCOCC5)C4)cc(Cl)n3)n2)c1 [Compound 660, 6-chloro-N-[1-(3,5-difluorophenyl)-1,2,4-triazol-3-yl]-4-(3-morpholinoazetidin-1-yl)pyridin-2-amine] | ≤ 1 | ≤ 1 | – | – | – | – |
| N#Cc1cc(Nc2ncn(-c3ccc(F)c(F)c3)n2)cc(N2CCOCC2)c1 [Compound 668, 3-[[1-(3,4-difluorophenyl)-1,2,4-triazol-3-yl]amino]-5-morpholino-benzonitrile] | 1 to 10 | 1 to 10 | – | – | – | – |
| Cc1cc(Nc2ncn(-c3ccnc(F)c3)n2)nc(N2CC(N3CCOCC3)C2)c1 [Compound 504, N-[1-(2-fluoro-4-pyridyl)-1,2,4-triazol-3-yl]-4-methyl-6-(3-morpholinoazetidin-1-yl)pyridin-2-amine] | 10 to 100 | 10 to 100 | – | – | – | – |
| Cc1cc(Nc2ncn(-c3cccc(C#N)c3)n2)cc(N2CCN(C)CC2)c1 [Compound 499, 3-[3-[3-methyl-5-(4-methylpiperazin-1-yl)anilino]-1,2,4-triazol-1-yl]benzonitrile] | 100 to 1000 | 10 to 100 | – | – | – | – |
| Cc1cc(Nc2ncn(-c3cccc(C(F)(F)F)c3)n2)cc(OCC2(C)COC2)c1 [Compound 671, N-[3-methyl-5-[(3-methyloxetan-3-yl)methoxy]phenyl]-1-[3-(trifluoromethyl)phenyl]-1,2,4-triazol-3-amine] | 10 to 100 | 1 to 10 | – | – | – | – |
| Fc1cccc(-n2cnc(Nc3cc(C4CC4)cc(N4CCN(C5COC5)CC4)c3)n2)c1 [Compound 462, N-[3-cyclopropyl-5-[4-(oxetan-3-yl)piperazin-1-yl]phenyl]-1-(3-fluorophenyl)-1,2,4-triazol-3-amine] | 100 to 1000 | ≤ 1 | – | – | – | – |
| COCCN1CCN(c2cc(C)cc(Nc3ncn(-c4cc(F)cc(F)c4)n3)c2)CC1=O [Compound 1067, 4-[3-[[1-(3,5-difluorophenyl)-1,2,4-triazol-3-yl]amino]-5-methyl-phenyl]-1-(2-methoxyethyl)piperazin-2-one] | – | – | – | – | 1 to 10 | ≤ 1 |
| COCCC1CCN(c2cc(C)cc(Nc3ncn(-c4cc(F)cc(F)c4)n3)n2)CC1 [Compound 855, N-[1-(3,5-difluorophenyl)-1,2,4-triazol-3-yl]-6-[4-(2-methoxyethyl)-1-piperidyl]4-methyl-pyridin-2-amine] | – | – | – | – | 1 to 10 | 1 to 10 |
| COC(=O)c1cc(Nc2ncn(-c3cc(F)cc(F)c3)n2)nc(N2CCOCC2)c1 [Compound 675, methyl 2-[[1-(3,5-difluorophenyl)-1,2,4-triazol-3-yl]amino]-6-morpholino-pyridine-4-carboxylate] | 1 to 10 | 1 to 10 | – | – | – | – |
| COCc1ccccc1-n1cnc(Nc2cc(C)cc(N3CCN(C4COC4)CC3)c2)n1 [Compound 233, 1-[2-(methoxymethyl)phenyl]-N-[3-methyl-5-[4-(oxetan-3-yl)piperazin-1-yl]phenyl]-1,2,4-triazol-3-amine] | – | – | ≤ 1 | ≤ 1 | – | – |
| Cc1cc(NCCN2CCOC(C)C2)cc(Nc2ncn(-c3cc(F)cc(F)c3)n2)c1 (stereo not drawn) [Compound 928, N1-[1-(3,5-difluorophenyl)-1,2,4-triazol-3-yl]-5-methyl-N3-[2-(2-methylmorpholin-4-yl)ethyl]benzene-1,3-diamine] | – | – | – | – | 10 to 100 | ≤ 1 |
| Cc1cc(Nc2ncn(-c3cc(F)cc(F)c3)n2)cc(N2CCN(C3CSC3)CC2)c1 [Compound 95, 1-(3,5-difluorophenyl)-N-[3-methyl-5-[4-(thietan-3-yl)piperazin-1-yl]phenyl]-1,2,4-triazol-3-amine] | – | – | 10 to 100 | ≤ 1 | – | – |
| CCOCC(O)CN1CCN(c2cc(C)cc(Nc3ncn(-c4cc(F)cc(F)c4)n3)c2)CC1 (stereo not drawn) [Compound 900, 1-[4-[3-[[1-(3,5-difluorophenyl)-1,2,4-triazol-3-yl]amino]-5-methyl-phenyl]piperazin-1-yl]-3-ethoxy-propan-2-ol] | – | – | – | – | 1 to 10 | ≤ 1 |
| Cc1cc(Nc2ncn(-c3cc(F)cc(F)c3)n2)cc(N2CCOC(CN3CCCC3)C2)c1 (stereo not drawn) [Compound 1027, 1-(3,5-difluorophenyl)-N-[3-methyl-5-[2-(pyrrolidin-1-ylmethyl)morpholin-4-yl]phenyl]-1,2,4-triazol-3-amine] | – | – | – | – | 1 to 10 | ≤ 1 |
| Cc1cc(Nc2ncn(-c3cc(F)cc(F)c3)n2)cc(NC2CCN(CC3CCOC3)CC2)c1 (stereo not drawn) [Compound 1045, N3-[1-(3,5-difluorophenyl)-1,2,4-triazol-3-yl]-5-methyl-N1-[1-(tetrahydrofuran-3-ylmethyl)-4-piperidyl]benzene-1,3-diamine] | – | – | – | – | 1 to 10 | ≤ 1 |
| Cc1cc(Nc2ncn(-c3cc(F)cc(F)c3)n2)cc(N2CC(N3CCN(C)CC3)C2)c1 [Compound 975, 1-(3,5-difluorophenyl)-N-[3-methyl-5-[3-(4-methylpiperazin-1-yl)azetidin-1-yl]phenyl]-1,2,4-triazol-3-amine] | – | – | – | – | 1 to 10 | ≤ 1 |
| Cc1cc(Nc2ncn(-c3cc(F)cc(F)c3)n2)cc(N2CCN(C3CCOC3)CC2)c1 (stereo not drawn) [Compound 137, 1-(3,5-difluorophenyl)-N-[3-methyl-5-(4-tetrahydrofuran-3-ylpiperazin-1-yl)phenyl]-1,2,4-triazol-3-amine] | – | – | 1000 to 10000 | 100 to 1000 | – | – |
| CN1CCCN(c2cc(F)cc(Nc3ncn(-c4cccc(F)c4)n3)c2)CC1 [Compound 98, N-[3-fluoro-5-(4-methyl-1,4-diazepan-1-yl)phenyl]-1-(3-fluorophenyl)-1,2,4-triazol-3-amine] | – | – | 10 to 100 | ≤ 1 | – | – |
| Cc1cc(Nc2ncn(-c3ccc(F)c(F)c3)n2)cc(NC2CCN(C3COC3)C2)c1 (stereo not drawn) [Compound 113, N3-[1-(3,4-difluorophenyl)-1,2,4-triazol-3-yl]-5-methyl-N1-[1-(oxetan-3-yl)pyrrolidin-3-yl]benzene-1,3-diamine] | – | – | 1000 to 10000 | ≤ 1 | – | – |
| Cc1cc(Nc2ncn(-c3cc(F)cc(F)c3)n2)cc(C2(F)CCN(C)C2)c1 (stereo not drawn) [Compound 23, 1-(3,5-difluorophenyl)-N-[3-(3-fluoro-1-methyl-pyrrolidin-3-yl)-5-methyl-phenyl]-1,2,4-triazol-3-amine] | – | – | 10 to 100 | 10 to 100 | – | – |
| Cc1cc(Nc2ncn(-c3cc(F)cc(F)c3)n2)cc(N2CCN(C(=O)C3CC3)CC2)c1 [Compound 458] | 1000 to 10000 | 100 to 1000 | – | – | – | – |
| Cc1cc(Nc2ncn(-c3cc(F)cc(F)c3)n2)cc(N2CC(N3CCOC[C@@H]3C)C2)c1 (single isomer, unassigned) [Compound 800] | – | – | – | – | 10 to 100 | 10 to 100 |
| CCOc1nccc(-n2cnc(Nc3cc(C4CC4)cc(N4CCN(C5COC5)CC4)c3)n2)n1 [Compound 286, N-[3-cyclopropyl-5-[4-(oxetan-3-yl)piperazin-1-yl]phenyl]-1-(2-ethoxypyrimidin-4-yl)-1,2,4-triazol-3-amine] | – | – | 100 to 1000 | 100 to 1000 | – | – |
| Cc1cc(Nc2ncn(-c3cc(F)cc(F)c3)n2)cc(N2CCN([C@@H]3CCOC3)CC2)c1 [Compound 531, 1-(3,5-difluorophenyl)-N-[3-methyl-5-[4-[(3R)-tetrahydrofuran-3-yl]piperazin-1-yl]phenyl]-1,2,4-triazol-3-amine] | 100 to 1000 | 100 to 1000 | – | – | – | – |
